Assays:
human plasma proteins = assay: Percent of free camptothecin analogs in human plasma (dialysis, HPLC); format: in vitro ADME; conditions: 100 nM Compound Concentrations
Protocol: Stocks of various camptothecin analogs were prepared in DMSO. […] Optimum HPLC detection conditions for each camptothecin analog were developed using traditional HPLC methods. Table VIII. Percent of Free Camptothecin Analogs in Human Plasma (100 nM Compound Concentrations)

[1] = tested on: A2780/WT (wild-type) cells; assay: Sulforhodamine B (SRB) cytotoxicity assay in A2780/WT cells; format: cell-based
Protocol: (§1) Each of the testing conditions used in this study in both A2780/WT (wild-type) and A2780/DX5 cells were repeated in five to fifteen experiments that were performed on separate days. Each experiment consisted of one microtiter plate with at least eight individual assays of a given drug treatment condition on the plate. The sulforhodamine B (SRB) assay was used to assess cytotoxicity and absorbance at 570 nm (A570) in order to calculate the percentage of cell control (or percent cell survival) for the various treatment conditions in the plate wells.
(§2) Roswell Park Memorial Institute (RPMI 1640) medium, fetal bovine serum (FBS), and L-glutamine were purchased from Gibco BRL. Drugs were dissolved in sterile dimethylsulfoxide (DMSO), from American Type Culture Collection (ATCC) for stock solutions (2.5 to 5.0 mM). Subsequent dilutions were made using cell culture medium (prior to adding the drug to cells). SRB was purchased from Sigma and dissolved in 1.0% acetic acid. Trichloroacetic acid was purchased from VWR International.
(§3) Cells were manipulated in a Class IIA/B3 Biological Safety Cabinet (Forma Scientific) and maintained at 37°C in a humidified atmosphere containing 5% CO2 in a water-jacketed cell culture incubator (Forma Scientific). Cells were counted using a Coulter-Zl counter (Beckman-Coulter). Following drug treatment, plates were washed using a Biomek 2000 station (Beckman) and, following exposure to SRB dye, plates were washed using an automated plate washer (Model EL404, Bio-Tek Instruments). Percentage of control was correlated to A570 values and determined using a Model EL800 plate reader (Bio-Tek Instruments).
(§4) Population doubling times for the two cell lines used in this study encompassed a total of five cell doublings corresponding to approximately 5 days for A2780/WT and A2780/DX5 cells. A2780/WT and A2780/DX5 cells were cultured in RPMI 1640 medium supplemented with 10% fetal bovine serum and 1 mM of L-glutamine. Both cell lines were maintained as monolayered cultures in T-25 or T-75 flasks and then seeded to microtiter plate wells for experiments described herein. Prior to SRB assays, cell viability was monitored by evaluation of microtiter plate wells. Dead cells detach and float while living cells remain attached to the bottom of the cell well.
(§5) The sulforhodamine B (SRB) cytotoxicity assay (see, Skehan P, et al., New colorimetric cytotoxicity assay for anticancer-drug screening. J. Natl. Cancer Inst. 82: 1107-1112 (1990)) was used to determine the cytotoxic effects of BNP1350, SN-38, topotecan, 9-NH2-CPT, and 9-NO2-CPT on cell growth in vitro. Briefly, after the medium was aspirated from individual plate wells, trichloroacetic acid (100 µL of 10.0% solution) was added to each well, and the plates were incubated at 4°C for at least 1 hour. The plates were washed five-times with water using an automated microplate washer (Model EL 404, Bio-Tek Instruments), SRB solution (100 µL of 0.4 grams SRB dissolved in 100 mL 1.0% acetic acid) was added, and plates remained at room temperature for 15 minutes. The plates were then washed five-times using acetic acid (1.0 percent), air dried, and bound dye was solubilized in Tris base (150 µL, 10 mM). Plates were agitated (gently) for 5 minutes and the absorbance values of the SRB dye-protein adduct at a 570 nm wavelength (A570) were determined using an automated microtiter plate reader equipped with an A570 filter (Model EL800, BioTek Instruments). Table VII. Summary of Cytotoxicity Experiments in A2780/WT and DX5 Cells

A2780/DX5 cells = assay: Sulforhodamine B (SRB) cytotoxicity assay in A2780/DX5 cells; format: cell-based; conditions: for IC50 Ratio: A2780/DX5 versus A2780/WT; for IC50: SRB assay
Protocol: as §1, §2, §3, §4, §5

[2] = cited from earlier work
[3] = tested on: Angiogenesis was induced by fibroblast growth factor; conditions: dose levels of 210 mg/kg; cited from earlier work
[4] = clinical studies in Japan alone; cited from earlier work
[5] = over the first 48 hours, IV camptothecin sodium; cited from earlier work

With `CC[C@@]1(O)C(=O)OCc2c1cc1n(c2=O)Cc2c-1nc1ccc(OCC(N)=O)cc1c2CC[Si](C)(C)C` [Compound 10, 7-(2'-Trimethylsilanyl) ethyl-10-(amidomethyloxy) camptothecin] the “Percent of Free CPTs” value (human plasma proteins) was 25%, the IC50 [1] was 34.1 nM and the “IC50 Ratio” value (A2780/DX5 cells) was 11.8. For the same compound, the IC50 (A2780/DX5 cells) was 401 nM.
In the case of `CC[C@@](O)(C(=O)O)c1cc2n(c(=O)c1CO)Cc1cc3ccccc3nc1-2` [carboxylate form of CPT], the “reduction of anti-tumor activity” value ([2]; carboxylate form versus lactone) is given as “at least 10 fold” and the “anti-tumor potency relative to the non-hydrolyzed lactone form of CPT” value ([2]; sodium hydroxide formulation, hydrolysed E-ring) is given as “approximately one-tenth or less”.
For `CCOc1ccc2nc3c(c(CC[Si](C)(C)C)c2c1)C(O)n1c-3cc2c(c1=O)COC(=O)[C@]2(O)CC` (stereo partly drawn) [Compound 6, 5-hydroxy-7-(2'-trimethylsilanyl) ethyl-10-ethoxy camptothecin], the IC50 [1] was 158 nM, the “IC50 Ratio” value (A2780/DX5 cells) was 1.1 and the IC50 (A2780/DX5 cells) was 168 nM.
With `CC[C@@]1(O)C(=O)OCc2c1cc1n(c2=O)Cc2c-1nc1ccc(OCOC)cc1c2CC[Si](C)(C)C` [Compound 2, 7-(2'-Trimethylsilanyl) ethyl-10-methoxymethoxy camptothecin] the IC50 [1] was 43.4 nM, the “IC50 Ratio” value (A2780/DX5 cells) was 1.5 and the IC50 (A2780/DX5 cells) was 64.8 nM.
In the case of `CC[C@@]1(O)C(=O)OCc2c1cc1n(c2=O)Cc2c-1nc1ccc(OCC#N)cc1c2CC[Si](C)(C)C` [Compound 15, 7-(2'-Trimethylsilanyl) ethyl-10-cyanomethoxy camptothecin], the IC50 [1] is reported as 9.6 nM, the “IC50 Ratio” value (A2780/DX5 cells) is reported as 2.0 and the IC50 (A2780/DX5 cells) is reported as 18.9 nM.
With `CC[C@@]1(O)C(=O)OCc2c1cc1n(c2=O)Cc2c-1nc1ccc(OC(=O)N(C)C)cc1c2CC[Si](C)(C)C` [Compound 8, 7-(2'-trimethylsilanyl) ethyl-10-(dimethylcarbamoyloxy) camptothecin] the “Percent of Free CPTs” value (human plasma proteins) was 6.4%, the IC50 [1] was 54.8 nM and the “IC50 Ratio” value (A2780/DX5 cells) was 1.1. The IC50 (A2780/DX5 cells) was 61.1 nM.
In the case of `CCc1c2c(nc3ccc(OC(=O)N4CCC(N5CCCCC5)CC4)cc13)-c1cc3c(c(=O)n1C2)COC(=O)[C@]3(O)CC` [CPT-11, 7-ethyl-10-[4-(1-piperidino)-1-piperidino] carbonyloxy camptothecin], the neovascularization [3] is listed as “significant reduction of neovascularization” and the “patient deaths directly attributable to drug toxicity” value [4] is listed as “approximately 100”.
For `CC[C@@]1(O)C(=O)OCc2c1cc1n(c2=O)Cc2c-1nc1ccc(OC(=S)N(C)C)cc1c2CC[Si](C)(C)C` [Compound 13], the IC50 [1] was 117 nM, the “IC50 Ratio” value (A2780/DX5 cells) was 2.0 and the IC50 (A2780/DX5 cells) was 228 nM.
In the case of “7-(2'-Trimethylsilanyl) ethyl-10-(ethoxycarbonylmethoxyl camptothecin [Compound 9]”, the IC50 [1] is reported as 73.9 nM, the “IC50 Ratio” value (A2780/DX5 cells) is reported as 1.7 and the IC50 (A2780/DX5 cells) is reported as 123 nM.
For `CC[C@@]1(O)C(=O)OCc2c1cc1n(c2=O)Cc2cc3c(CN(C)C)c(O)ccc3nc2-1` [Topotecan, 9-dimethylaminomethyl-10-hydroxy camptothecin], the “Percent of Free CPTs” value (human plasma proteins) was 100%.
With “7-(2'-Trimethylsilanyl) ethyl-10-(4-moroholinecarbonyloxy) camptothecin [Compound 12]” the IC50 [1] was 65.6 nM, the “IC50 Ratio” value (A2780/DX5 cells) was 2.1 and the IC50 (A2780/DX5 cells) was 135 nM.
In the case of `CC[C@@]1(O)C(=O)OCc2c1cc1n(c2=O)Cc2c-1nc1ccc(OC)cc1c2CC[Si](C)(C)C` [Compound 1, 7-(2'-Trimethylsilanyl) ethyl-10-methoxy camptothecin], the “Percent of Free CPTs” value (human plasma proteins) is reported as 3.5%, the IC50 [1] is reported as 16.8 nM and the “IC50 Ratio” value (A2780/DX5 cells) is reported as 1.3. The IC50 (A2780/DX5 cells) was 21.9 nM.
With `CC[C@@]1(O)C(=O)OCc2c1cc1n(c2=O)C(O)c2c-1nc1ccc(OCC(N)=O)cc1c2CC[Si](C)(C)C` (stereo partly drawn) [Compound 7, 5-Hydroxy-7-(2'-trimethylsilanyl) ethyl-10-amidomethoxy camptothecin] the IC50 [1] was 266 nM and the IC50 (A2780/DX5 cells) was greater than 650 nM.
With `CCc1c2c(nc3ccc(O)cc13)-c1cc3c(c(=O)n1C2)COC(=O)[C@]3(O)CC` [SN-38, 10-hydroxy-7-ethyl camptothecin] the “Percent of Free CPTs” value (human plasma proteins) was 15%.
With `CC[C@@]1(O)C(=O)OCc2c1cc1n(c2=O)Cc2c-1nc1ccc(OC(C)C)cc1c2CC[Si](C)(C)C` [Compound 5, 7-(2'-Trimethylsilanyl) ethyl-10-isopropoxy camptothecin] the IC50 [1] was 86.2 nM, the “IC50 Ratio” value (A2780/DX5 cells) was 1.2 and the IC50 (A2780/DX5 cells) was 103 nM.
In the case of `CCOc1ccc2nc3c(c(CC[Si](C)(C)C)c2c1)Cn1c-3cc2c(c1=O)COC(=O)[C@]2(O)CC` [Compound 14, 7-(2'-Trimethylsilanyl) ethyl-10-ethoxy camptothecin], the IC50 [1] is reported as 14.1 nM, the “IC50 Ratio” value (A2780/DX5 cells) is reported as 1.2 and the IC50 (A2780/DX5 cells) is reported as 17.2 nM.
With `CC[C@@]1(O)C(=O)OCc2c1cc1n(c2=O)Cc2c-1nc1ccc(OCCOC)cc1c2CC[Si](C)(C)C` [Compound 4, 7-(2'-Trimethylsilanyl)ethyl-10-(2'-methoxyethoxy) camptothecin] the “Percent of Free CPTs” value (human plasma proteins) was 6%, the IC50 [1] was 70.1 nM and the “IC50 Ratio” value (A2780/DX5 cells) was 1.0. For the same compound, the IC50 (A2780/DX5 cells) was 70.6 nM.
For `CC[C@@]1(O)C(=O)OCc2c1cc1n(c2=O)Cc2cc3ccccc3nc2-1` [CPT, (S)-4-Ethyl-4-hydroxy-1H-pyrano[3',4':6,7]indolizino[1,2-b]quinoline-3,14(4H,12H)-dione], the “mean urine recovery of CPT” value [5] is listed as 17.4% and the “Percent of Free CPTs” value (human plasma proteins) is listed as 0%.
In the case of `CC[C@@]1(O)C(=O)OCc2c1cc1n(c2=O)Cc2c-1nc1ccc(OCCCO)cc1c2CC[Si](C)(C)C` [Compound 3, 7-(2'-trimethylsilanyl) ethyl-10-(3'-hydroxypropoxy) camptothecin], the “Percent of Free CPTs” value (human plasma proteins) is reported as 6.8%, the IC50 [1] is reported as 15 nM and the “IC50 Ratio” value (A2780/DX5 cells) is reported as 2.5. For the same compound, the IC50 (A2780/DX5 cells) was 37.6 nM.

— EP2197279B1, “C10-SUBSTITUTED CAMPTOTHECIN ANALOGS” (BIONUMERIK PHARMACEUTICALS, INC., priority 2007, dated 2009)
